Data on 4 molecules can be found in PMC8544188 (Molecular Diversity, 2021).

Assay [1] deals with T1, α-glucosidase (Saccharomyces cerevisiae, UniProt P53341). Description: Enzyme kinetic studies. Conditions: Lineweaver–Burk plot: Km increased, Vmax unchanged. It is filed as biochemical.
The target of assay [2] is T1, α-glucosidase. As to the kind of experiment: α-glucosidase inhibition assay. Type of assay: biochemical.

Entries after “also recorded” stand apart in the source; their conditions may differ.

T1 sequence (P53341 whole entry): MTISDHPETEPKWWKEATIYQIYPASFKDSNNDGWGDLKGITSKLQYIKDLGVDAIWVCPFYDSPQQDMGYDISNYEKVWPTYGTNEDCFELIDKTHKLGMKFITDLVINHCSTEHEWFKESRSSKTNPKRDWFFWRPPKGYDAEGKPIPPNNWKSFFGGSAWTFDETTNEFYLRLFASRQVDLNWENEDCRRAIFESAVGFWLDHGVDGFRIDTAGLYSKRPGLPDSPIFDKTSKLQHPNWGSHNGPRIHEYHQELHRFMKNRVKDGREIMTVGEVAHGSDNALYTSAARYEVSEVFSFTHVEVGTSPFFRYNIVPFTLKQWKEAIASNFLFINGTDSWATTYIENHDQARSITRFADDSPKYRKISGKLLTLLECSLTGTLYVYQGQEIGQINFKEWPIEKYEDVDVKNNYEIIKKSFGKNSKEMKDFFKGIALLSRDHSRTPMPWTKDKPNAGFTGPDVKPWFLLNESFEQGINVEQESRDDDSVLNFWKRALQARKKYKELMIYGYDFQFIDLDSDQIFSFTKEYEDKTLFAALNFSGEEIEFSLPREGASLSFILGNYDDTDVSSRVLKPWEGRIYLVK

Consider `COc1ccc(-c2[nH]c3c(c2CC#N)c(=O)oc2ccccc23)cc1` [5e, 2-(2-(4-methoxyphenyl)-4-oxo-1,4-dihydrochromeno[4,3-b]pyrrol-3-yl)acetonitrile], for which, at α-glucosidase [1], the mode of inhibition result is given as “competitive inhibition; also recorded: competitive inhibitor”.

On to `N#CC(C(N)=O)c1c(-c2ccccc2)[nH]c2c1c(=O)oc1ccccc12` (stereo not shown) [4a, 2-cyano-2-(4-oxo-2-phenyl-1,4-dihydrochromeno[4,3-b]pyrrol-3-yl)acetamide], for which the “fold improvement in inhibitory potency compared to acarbose (positive control)” value on α-glucosidase [2] (ratio of IC50 values versus acarbose) is “around fivefold”.

On to `N#CCc1c(-c2ccc(Cl)cc2)[nH]c2c1c(=O)oc1ccccc12` [5d, 2-(2-(4-chlorophenyl)-4-oxo-1,4-dihydrochromeno[4,3-b]pyrrol-3-yl)acetonitrile], for which, on α-glucosidase [2] (ratio of IC50 values versus 5a), the “fold increase in potency compared to 5a” value is listed as “around fivefold”.

Turning to `N#CCc1c(-c2ccccc2)[nH]c2c1c(=O)oc1ccc(Cl)cc12` [5b, 2-(8-chloro-4-oxo-2-phenyl-1,4-dihydrochromeno[4,3-b]pyrrol-3-yl)acetonitrile], the “α-glucosidase inhibitory activity in words” value at α-glucosidase [2] was “diminished the inhibitory activity completely”.
